Assay results published in patent US12240855B2, “Pyrrolopyrazole derivative” (DAIICHI SANKYO COMPANY, LIMITED, priority 2019, dated 2025).

What was measured:
HCT116 cells = experiment: cells; conditions: Homo sapiens, HCT-116, 72 h, read-out: Test Example 3 HCT116 GI50
Protocol: McCoy's 5A medium containing 10% bovine serum was used as the culture medium for each cell. […] They were added to each well of 384-well plates at 40 nL/well using an Echo555 (Labcyte Inc.). […] On the day of compound addition (day 0) and 3 days after compound addition (day 3), 10 μL/well of CellTiter-Glo® 2.0 Assay (Promega, #G9242), which is a reagent for ATP measurement, was added to each well, and the amount of luminescence in each well was measured with EnVision. From the amount of luminescence on the day of compound addition (C0) and the amount of luminescence of the compound non-addition group (C3) and compound addition group (T3) after 3 days of culture, cell viability was calculated based on the following formula. Cell viability (%)=[(T3−C0)/(C3−C0)]×100

[1] = test system: PTDSS2-KO HCT116 cell-subcutaneous transplanted model; experiment: Test Example 4: Antitumor activity on PTDSS2-KO HCT116 cell-subcutaneous transplanted model; assay type: in vivo, female BALB/c-nu/nu mice; conditions: oral
Excerpt: HCT116 cell-subcutaneous transplanted model PTDSS2-KO HCT116 cells were transplanted to a right subcutaneous axillary portion of female BALB/c-nu/nu mice at a proportion of 1×10^7 cells/head, and when the tumor volume reached 100 to 300 mm^3 (estimated tumor volume (major axis×minor axis×minor axis/2)), mice were divided into groups of 6 or 5 mice each such that there was no difference between groups. The female BALB/c-nu/nu mice were purchased from CHARLES RIVER LABORATORIES JAPAN, INC. The compounds of Examples 58, 57, 53, 30, 42, 32, 34, 33, and 31 were orally administered from the day of grouping in the dosing schedule shown in Table 12 (twice daily, 11 successive days (BID×11), or once daily, 13 successive days (QD×13)). The tumor volume was measured until the next day of completion of the administration (test end date). 0.5% methylcellulose (MC) was administered to the vehicle control group as the vehicle.
TGI %=(1−TVt/TVc)×100 • TGI: Tumor growth suppression rate • TVt: Group mean tumor volume of compound administration group on test end date • TVc: Group mean tumor volume of vehicle control group on test end date

[2] = 10 mg/kg, QD × 13, test end date
[3] = 20 mg/kg, QD × 13, test end date
[4] = 40 mg/kg, QD × 13, test end date

| SMILES | GI50 (HCT116 cells) | further results |
| --- | --- | --- |
| O=C1c2[nH]nc(-c3cccc4[nH]c(=O)oc34)c2C(c2ccc(Oc3ccc(Cl)cc3)cc2)N1CC1CC1 (single isomer, unassigned) [Example 2, 7-{4-[4-(4-Chlorophenoxy)phenyl]-5-(cyclopropylmethyl)-6-oxo-1,4,5,6-tetrahydropyrrolo[3,4-c]pyrazol-3-yl}-1,3-benzoxazol-2(3H)-one (enantiomer)] | 10 µM | – |
| Cc1nc(C2c3c(-c4cccc5[nH]c(=O)oc45)n[nH]c3C(=O)N2CC(C)(F)F)ccc1F (single isomer, unassigned) [Example 23, 7-[5-(2,2-Difluoropropyl)-4-(5-fluoro-6-methylpyridin-2-yl)-6-oxo-1,4,5,6-tetrahydropyrrolo[3,4-c]pyrazol-3-yl]-1,3-benzoxazol-2(3H)-one (enantiomer)] | > 25 µM | – |
| CC(F)(F)CN1C(=O)c2[nH]nc(-c3cccc4[nH]c(=O)oc34)c2C1c1cnc(C(F)(F)F)s1 (single isomer, unassigned) [Example 24, 7-{5-(2,2-Difluoropropyl)-6-oxo-4-[2-(trifluoromethyl)-1,3-thiazol-5-yl]-1,4,5,6-tetrahydropyrrolo[3,4-c]pyrazol-3-yl}-1,3-benzoxazol-2(3H)-one (enantiomer)] | > 25 µM | – |
| CC(F)(F)CN1C(=O)c2[nH]nc(-c3cccc4[nH]c(=O)oc34)c2C1c1ccc(Oc2cc(C(F)(F)F)cc(C(F)(F)F)c2)cc1F (single isomer, unassigned) [Example 66, 7-[4-{4-[3,5-Bis(trifluoromethyl)phenoxy]-2-fluorophenyl}-5-(2,2-difluoropropyl)-6-oxo-1,4,5,6-tetrahydropyrrolo[3,4-c]pyrazol-3-yl]-1,3-benzoxazol-2(3H)-one (enantiomer)] | > 25 µM | – |
| CC(F)(F)CN1C(=O)c2[nH]nc(-c3cccc4[nH]c(=O)oc34)c2C1c1ccc(CN2CCC(F)(F)CC2)cc1 (single isomer, unassigned) [Example 83, 7-[4-{4-[(4,4-Difluoropiperidin-1-yl)methyl]phenyl}-5-(2,2-difluoropropyl)-6-oxo-1,4,5,6-tetrahydropyrrolo[3,4-c]pyrazol-3-yl]-1,3-benzoxazol-2(3H)-one (enantiomer)] | > 25 µM | – |
| CC(F)(F)CN1C(=O)c2[nH]nc(-c3cccc4[nH]c(=O)oc34)c2C1c1ccc(Oc2ccc(OC(F)(F)F)cc2)cc1 (single isomer, unassigned; (-)) [Example 30, (−)-7-[5-(2,2-difluoropropyl)-6-oxo-4-{4-[4-(trifluoromethoxy)phenoxy]phenyl}-1,4,5,6,-tetrahydropyrrolo[3,4-c]pyrazol-3-yl]-1,3-benzoxazol-2-(3H)-one] | – | TGI (%) [1, 2]: 26%; TGI (%) [1, 3]: 50%; TGI (%) [1, 4]: 83% |
| CC(F)(F)CN1C(=O)c2[nH]nc(-c3cccc4[nH]c(=O)oc34)c2C1c1ccc(Oc2ccc(OC(F)(F)F)c(Cl)c2)cc1 (single isomer, unassigned; (-)) [Example 31, (−)-7-[4-{4-[3-chloro-4-(trifluoromethoxy)phenoxy]phenyl}-5-(2,2-difluoropropyl)-6-oxo-1,4,5,6,-tetrahydropyrrolo[3,4-c]pyrazol-3-yl]-1,3-benzoxazol-2-(3H)-one] | – | TGI (%) [1, 4]: 88% |
| Cc1cc(Oc2ccc(C3c4c(-c5cccc6[nH]c(=O)oc56)n[nH]c4C(=O)N3CC(C)(F)F)cc2)ccc1OC(F)(F)F (single isomer, unassigned; (-)) [Example 32, (−)-7-[5-(2,2-difluoropropyl)-4-{4-[3-methyl-4-(trifluoromethoxy)phenoxy]phenyl}-6-oxo-1,4,5,6-tetrahydropyrrolo[3,4-c]pyrazol-3-yl]-1,3-benzoxazol-2(3H)-one] | – | TGI (%) [1, 2]: 95%; TGI (%) [1, 3]: 98%; TGI (%) [1, 4]: 98% |
| CC(F)(F)CN1C(=O)c2[nH]nc(-c3cccc4[nH]c(=O)oc34)c2C1c1ccc(Oc2cc(Cl)cc(OC(F)(F)F)c2)cc1 (single isomer, unassigned; (-)) [Example 34, (−)-7-[4-{4-[3-Chloro-5-(trifluoromethoxy)phenoxy]phenyl}-5-(2,2-difluoropropyl)-6-oxo-1,4,5,6-tetrahydropyrrolo[3,4-c]pyrazol-3-yl]-1,3-benzoxazol-2(3H)-one] | – | TGI (%) [1, 2]: 63%; TGI (%) [1, 3]: 87%; TGI (%) [1, 4]: 96% |
| CC(F)(F)CN1C(=O)c2[nH]nc(-c3cccc4[nH]c(=O)oc34)c2C1c1cccc(Oc2ccc(F)cc2)c1 (single isomer, unassigned; (-)) [Example 53, (−)-7-{5-(2,2-Difluoropropyl)-4-[3-(4-fluorophenoxy)phenyl]-6-oxo-1,4,5,6-tetrahydropyrrolo[3,4-c]pyrazol-3-yl}-1,3-benzoxazol-2(3H)-one] | – | TGI (%) ([1]; 50 mg/kg, BID × 11, test end date): 41%; TGI (%) ([1]; 100 mg/kg, BID × 11, test end date): 83% |
| O=C1c2[nH]nc(-c3cccc4[nH]c(=O)oc34)c2C(c2cccc(Oc3ccc(Cl)cn3)c2)N1CC1CC1 (stereo not drawn) [Example 3] | 13 µM | – |
| O=C1c2[nH]nc(-c3cccc4[nH]c(=O)oc34)c2C(c2cccc(OC3CCC(F)(F)CC3)c2)N1CC1CC1 (stereo not drawn) [Example 7, 7-[5-(Cyclopropylmethyl)-4-{3-[(4,4-difluorocyclohexyl)oxy]phenyl}-6-oxo-1,4,5,6-tetrahydropyrrolo[3,4-c]pyrazol-3-yl]-1,3-benzoxazol-2(3H)-one] | 15 µM | – |
| CCC(F)(F)CN1C(=O)c2[nH]nc(-c3cccc4[nH]c(=O)oc34)c2C1c1ccc(F)cc1 (stereo not drawn) [Example 11, 7-[5-(2,2-Difluorobutyl)-4-(4-fluorophenyl)-6-oxo-1,4,5,6-tetrahydropyrrolo[3,4-c]pyrazol-3-yl]-1,3-benzoxazol-2(3H)-one] | > 25 µM | – |
| O=C1c2[nH]nc(-c3cccc4[nH]c(=O)oc34)c2C(c2cccc(Oc3ccccc3)c2)N1Cc1ncco1 (stereo not drawn) [Example 12, 7-{5-[(1,3-Oxazol-2-yl)methyl]-6-oxo-4-(3-phenoxyphenyl)-1,4,5,6-tetrahydropyrrolo[3,4-c]pyrazol-3-yl}-1,3-benzoxazol-2(3H)-one] | > 25 µM | – |
| O=C1c2[nH]nc(-c3cc(Oc4ccccc4)cc4[nH]c(=O)oc34)c2C(c2ccc(F)cc2)N1CC(F)(F)F (stereo not drawn) [Example 15, 7-[4-(4-Fluorophenyl)-6-oxo-5-(2,2,2-trifluoroethyl)-1,4,5,6-tetrahydropyrrolo[3,4-c]pyrazol-3-yl]-5-phenoxy-1,3-benzoxazol-2(3H)-one] | > 25 µM | – |
| O=C1c2[nH]nc(-c3ccc(F)c4[nH]c(=O)oc34)c2C(c2cc(Oc3ccccc3)ccc2F)N1CC(F)(F)F (stereo not drawn) [Example 16, 4-Fluoro-7-[4-(2-fluoro-5-phenoxy]phenyl)-6-oxo-5-(2,2,2-trifluoroethyl)-1,4,5,6-tetrahydropyrrolo[3,4-c]pyrazol-3-yl-1,3-benzoxazol-2(3H)-one] | > 25 µM | – |
| CC(F)(F)CN1C(=O)c2[nH]nc(-c3cccc4[nH]c(=O)oc34)c2C1c1ccnc(Oc2ccccc2)c1 (stereo not drawn) [Example 72, 7-[5-(2,2-Difluoropropyl)-6-oxo-4-(2-phenoxypyridin-4-yl)-1,4,5,6-tetrahydropyrrolo[3,4-c]pyrazol-3-yl]-1,3-benzoxazol-2(3H)-one] | > 25 µM | – |
| CC(F)(F)CN1C(=O)c2[nH]nc(-c3cccc4[nH]c(=O)oc34)c2C1c1ccc(Oc2ccc(Cl)cc2)cn1 (stereo not drawn) [Example 77, 7-{4-[5-(4-Chlorophenoxy)pyridin-2-yl]-5-(2,2-difluoropropyl)-6-oxo-1,4,5,6-tetrahydropyrrolo[3,4-c]pyrazol-3-yl]-1,3-benzoxazol-2(3H)-one] | > 25 µM | – |
| CC(F)(F)CN1C(=O)c2[nH]nc(-c3cccc4[nH]c(=O)oc34)c2C1c1cc(Oc2ccc(F)cc2)ccn1 (stereo not drawn) [Example 78, 7-{5-(2,2-Difluoropropyl)-4-[4-(4-fluorophenoxy)pyridin-2-yl]-6-oxo-1,4,5,6-tetrahydropyrrolo[3,4-c]pyrazol-3-yl}-1,3-benzoxazol-2(3H)-one] | > 25 µM | – |
| CC(F)(F)CN1C(=O)c2[nH]nc(-c3cccc4[nH]c(=O)oc34)c2C1c1ccc2c(cnn2-c2ccccc2)c1 (stereo not drawn) [Example 88, 7-[5-(2,2-Difluoropropyl)-6-oxo-4-(1-phenyl-1H-indazol-5-yl)-1,4,5,6-tetrahydropyrrolo[3,4-c]pyrazol-3-yl]-1,3-benzoxazol-2(3H)-one] | 7.9 µM | – |
| CC(F)(F)CN1C(=O)c2[nH]nc(-c3cccc4[nH]c(=O)oc34)c2C1c1ccc(C(F)(F)c2ccccc2)cc1 (stereo not drawn) [Example 91, 7-[4-{4-[Difluoro(phenyl)methyl]phenyl}-5-(2,2-difluoropropyl)-6-oxo-1,4,5,6-tetra hydropyrrolo[3,4-c]pyrazol-3-yl]-1,3-benzoxazol-2(3H)-one] | 15 µM | – |
| CC(F)(F)CN1C(=O)c2[nH]nc(-c3cccc(NC=O)c3)c2C1c1ccc(Cl)cc1 (stereo not drawn) [Example 92, N-{3-[4-(4-Chlorophenyl)-5-(2,2-difluoropropyl)-6-oxo-1,4,5,6-tetrahydropyrrolo[3,4-c]pyrazol-3-yl]phenyl}formamide] | 11 µM | – |
| CC(F)(F)CN1C(=O)c2[nH]nc(-c3cccc(NC(N)=O)c3)c2C1c1ccc(Cl)cc1 (stereo not drawn) [Example 93, N-{3-[4-(4-Chlorophenyl)-5-(2,2-difluoropropyl)-6-oxo-1,4,5,6-tetrahydropyrrolo[3,4-c]pyrazol-3-yl]phenyl}urea] | > 25 µM | – |
